pIC50: −log10 of the molar value.
Test system: 388556-164-R-J1-PDC complex spheroid viability
Experiment: Anticancer human tumor 388556-164-R-J1-PDC patient-derived colon adenocarcinoma cell line growth inhibition [RAS]
Conditions: for pIC50: curve of first compound; for viability, T/C: stronger effect = lower value
Outline: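 Agents were tested in combination matrices in half-log decrements from a top concentration at or near clinical Cmax (10 microM if undetermined). Targets were multi-cell spheroids of tumour lines plus HUVEC and MSC stromal cells.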

[1] = second compound 0.000949 µM, first compound 0.0316 µM
[2] = second compound 0.000949 µM, first compound 0.1 µM
[3] = second compound 0.000949 µM, first compound 0.316 µM
[4] = second compound 0.000949 µM, first compound 1 µM
[5] = second compound 0.000949 µM, first compound 3.16 µM
[6] = second compound 0.000949 µM, first compound 10 µM
[7] = second compound 0.003 µM, first compound 0.0316 µM
[8] = second compound 0.003 µM, first compound 0.1 µM
[9] = second compound 0.003 µM, first compound 0.316 µM
[10] = second compound 0.003 µM, first compound 1 µM
[11] = second compound 0.003 µM, first compound 3.16 µM
[12] = second compound 0.003 µM, first compound 10 µM
[13] = second compound 0.00949 µM, first compound 0.0316 µM
[14] = second compound 0.00949 µM, first compound 0.1 µM
[15] = second compound 0.00949 µM, first compound 0.316 µM
[16] = second compound 0.00949 µM, first compound 1 µM
[17] = second compound 0.00949 µM, first compound 3.16 µM
[18] = second compound 0.00949 µM, first compound 10 µM
[19] = second compound 0.03 µM, first compound 0.0316 µM
[20] = second compound 0.03 µM, first compound 0.1 µM
[21] = second compound 0.03 µM, first compound 0.316 µM
[22] = second compound 0.03 µM, first compound 1 µM
[23] = second compound 0.03 µM, first compound 3.16 µM
[24] = second compound 0.03 µM, first compound 10 µM
[25] = second compound 0.0949 µM, first compound 0.0316 µM
[26] = second compound 0.0949 µM, first compound 0.1 µM
[27] = second compound 0.0949 µM, first compound 0.316 µM
[28] = second compound 0.0949 µM, first compound 1 µM
[29] = second compound 0.0949 µM, first compound 3.16 µM
[30] = second compound 0.0949 µM, first compound 10 µM
[31] = second compound 0.3 µM, first compound 0.0316 µM
[32] = second compound 0.3 µM, first compound 0.1 µM
[33] = second compound 0.3 µM, first compound 0.316 µM
[34] = second compound 0.3 µM, first compound 1 µM
[35] = second compound 0.3 µM, first compound 3.16 µM
[36] = second compound 0.3 µM, first compound 10 µM
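Further: spheroids exposed to compound for 7 days before readout.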
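Wherever viability, T/C is given: 100% = DMSO vehicle control luminescence.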

## C[C@@H](NC(=O)c1ncnc(N)c1Cl)c1ncc(C(=O)Nc2cc(C(F)(F)F)c(Cl)cn2)s1 + CCn1c(-c2cc(N3CCN(C)CC3)cnc2C(C)OC)c2c3cc(ccc31)-c1csc(n1)CC(NC(=O)C1CC1C)C(=O)N1CCCC(N1)C(=O)OCC(C)(C)C2
Second compound 0.000949 µM
  pIC50: < 5.00
Second compound 0.003 µM
  pIC50: < 5.00
Second compound 0.00949 µM
  pIC50: < 5.00
Second compound 0.03 µM
  pIC50: < 5.00
Second compound 0.0949 µM
  pIC50: < 5.00
Second compound 0.3 µM
  pIC50: > 7.50
[1]
  viability, T/C: 96.3%
[2]
  viability, T/C: 127%
[3]
  viability, T/C: 105%
[4]
  viability, T/C: 117%
[5]
  viability, T/C: 129%
[6]
  viability, T/C: 109%
[7]
  viability, T/C: 114%
[8]
  viability, T/C: 100%
[9]
  viability, T/C: 86.5%
[10]
  viability, T/C: 101%
[11]
  viability, T/C: 111%
[12]
  viability, T/C: 105%
[13]
  viability, T/C: 85%
[14]
  viability, T/C: 87.1%
[15]
  viability, T/C: 89.5%
[16]
  viability, T/C: 82.2%
[17]
  viability, T/C: 102%
[18]
  viability, T/C: 104%
[19]
  viability, T/C: 75.7%
[20]
  viability, T/C: 67.9%
[21]
  viability, T/C: 91%
[22]
  viability, T/C: 75.1%
[23]
  viability, T/C: 78.8%
[24]
  viability, T/C: 72.4%
[25]
  viability, T/C: 50.2%
[26]
  viability, T/C: 54.3%
[27]
  viability, T/C: 54.3%
[28]
  viability, T/C: 63.9%
[29]
  viability, T/C: 71%
[30]
  viability, T/C: 61.4%
[31]
  viability, T/C: 34.3%
[32]
  viability, T/C: 33.2%
[33]
  viability, T/C: 38.6%
[34]
  viability, T/C: 41.6%
[35]
  viability, T/C: 38.5%
[36]
  viability, T/C: 44.1%

## C[C@@H](NC(=O)c1ncnc(N)c1Cl)c1ncc(C(=O)Nc2cc(C(F)(F)F)c(Cl)cn2)s1 + CCn1c(-c2cccnc2C(C)OC)c2c3cc(ccc31)N1CCOC(CC(NC(=O)C(C(C)C)N(C)C(=O)C3(F)CCN(C(=O)C#CC(C)(C)N(C)C)CC3)C(=O)N3CCCC(N3)C(=O)OCC(C)(C)C2)C1
Second compound 0.000949 µM
  pIC50: < 5.00
Second compound 0.003 µM
  pIC50: < 5.00
Second compound 0.00949 µM
  pIC50: < 5.00
Second compound 0.03 µM
  pIC50: < 5.00
Second compound 0.0949 µM
  pIC50: < 5.00
Second compound 0.3 µM
  pIC50: < 5.00
[1]
  viability, T/C: 113%
[2]
  viability, T/C: 113%
[3]
  viability, T/C: 115%
[4]
  viability, T/C: 123%
[5]
  viability, T/C: 117%
[6]
  viability, T/C: 94.7%
[7]
  viability, T/C: 117%
[8]
  viability, T/C: 102%
[9]
  viability, T/C: 119%
[10]
  viability, T/C: 108%
[11]
  viability, T/C: 121%
[12]
  viability, T/C: 96.7%
[13]
  viability, T/C: 105%
[14]
  viability, T/C: 109%
[15]
  viability, T/C: 113%
[16]
  viability, T/C: 108%
[17]
  viability, T/C: 123%
[18]
  viability, T/C: 105%
[19]
  viability, T/C: 113%
[20]
  viability, T/C: 102%
[21]
  viability, T/C: 102%
[22]
  viability, T/C: 109%
[23]
  viability, T/C: 117%
[24]
  viability, T/C: 91.1%
[25]
  viability, T/C: 93.4%
[26]
  viability, T/C: 115%
[27]
  viability, T/C: 110%
[28]
  viability, T/C: 119%
[29]
  viability, T/C: 113%
[30]
  viability, T/C: 90.7%
[31]
  viability, T/C: 87.3%
[32]
  viability, T/C: 108%
[33]
  viability, T/C: 99.6%
[34]
  viability, T/C: 104%
[35]
  viability, T/C: 115%
[36]
  viability, T/C: 88%

Source: PubChem BioAssay AID2060907 (Molecular Pharmacology Branch, DTP, NCI, 2025)
